The target in assay [1] is T1, rRNA adenine N-6-methyltransferase (Streptococcus pneumoniae, UniProt P21236).
T1 sequence (P21236 whole entry): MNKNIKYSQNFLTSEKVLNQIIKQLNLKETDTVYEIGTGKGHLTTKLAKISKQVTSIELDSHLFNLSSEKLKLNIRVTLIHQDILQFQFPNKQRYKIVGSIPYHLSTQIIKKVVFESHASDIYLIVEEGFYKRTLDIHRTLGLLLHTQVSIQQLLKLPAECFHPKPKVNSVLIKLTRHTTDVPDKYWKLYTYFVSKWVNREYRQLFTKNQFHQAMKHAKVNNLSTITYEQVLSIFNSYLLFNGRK
The assay is described as follows: Inhibition of ErmAM methylase.

A short description of assay [2]: The compound was tested for its ability to inhibit ErmC methylase.
Assay [3] is described as follows: The compound was tested for its ability to inhibit ErmC methylase at 100 uM.
Assay [4] can be described thus: The compound was tested for its ability to inhibit ErmC methylase; Range 50-100.
The nature of assay [5]: The compound was tested for its ability to inhibit ErmAM methylase at 100 uM.
Assay [6] can be described thus: The compound was tested for its binding ability to inhibit ErmAM methylase.

Consider `Nc1nc(C[C@@H]2O[C@H](COCc3ccc(Br)cc3)[C@@H](O)[C@H]2O)nc(NC2Cc3ccccc3C2)n1`, for which the results for the Ki in assay [1] and in assay [2] were approximately 75 µM and approximately 40 µM, respectively.
With `Nc1nc(CC2O[C@H](CSCCc3ccccc3)[C@@H](O)[C@H]2O)nc(NC2Cc3ccccc3C2)n1` (stereo not given in full), the figures for the Ki in assay [1] and in assay [4] were more than 100 µM and 100 µM, respectively. For the same compound, the inhibition in assay [3] came out at 39.9%; in assay [5] it was 18%.
Take `Nc1nc(CC2O[C@H](CSCc3ccc(Cl)cc3)[C@@H](O)[C@H]2O)nc(NC2Cc3ccccc3C2)n1` (stereo not given in full): the inhibitory constant (Ki) in assay [1] was approximately 55 µM; in assay [2], approximately 80 µM.
Compound `Nc1nc(CC2O[C@H](COCc3ccccc3)[C@@H](O)[C@H]2O)nc(NC2Cc3ccccc3C2)n1` (stereo not given in full) had a Ki in assay [1] of more than 100 µM. For the same compound, the inhibition in assay [3] is 5.5%; in assay [5], 16.9%.
For `Nc1nc(C[C@@H]2O[C@H](COC/C=C/c3ccccc3)[C@@H](O)[C@H]2O)nc(NC2Cc3ccccc3C2)n1`, the Ki in assay [1] is approximately 90 µM; in assay [2], approximately 60 µM.
Turning to `Nc1nc(NC2Cc3ccccc3C2)nc([C@H]2C[C@@H](O)[C@H](O)[C@H](OCc3ccccc3)C2)n1`, the Ki in assay [1] and in assay [2] was more than 100 µM in each case. In addition, the inhibition in assay [3] was found to be 17.7%; in assay [5], 9.9%.
In the case of `Nc1nc(CC2O[C@H](CSc3ccccc3)[C@@H](O)[C@H]2O)nc(NC2Cc3ccccc3C2)n1` (stereo not given in full), the Ki in assay [1] and in assay [2] was more than 100 µM in each case. Moreover, the inhibition was found to be 28% in assay [3] and 3.4% in assay [5].
In the case of `Nc1nc(CC[C@@H]2O[C@H](COCc3ccc(Br)cc3)[C@@H](O)[C@H]2O)nc(NC2Cc3ccccc3C2)n1`, the Ki in assay [1] was approximately 50 µM; in assay [4], 100 µM. The results for the inhibition in assay [3] and in assay [5] were 37.5% and 55%, respectively.
The compound `Nc1nc(NC2Cc3ccccc3C2)nc(N2CCCCC2)n1` gave an inhibitory constant (Ki) in assay [6] of 8 µM.
With `Nc1nc(CC2O[C@H](CSCc3ccccc3)[C@@H](O)[C@H]2O)nc(NC2Cc3ccccc3C2)n1` (stereo not given in full), the Ki in assay [1] and in assay [2] was more than 100 µM in each case. Further, the inhibition in assay [3] and in assay [5] was 10% in each case.
Regarding `Nc1nc(NC2Cc3ccccc3C2)cc(-c2ccc(NCCCc3ccccc3O)cc2)n1`, the Ki in assay [6] was 10 µM.
For `Cc1ccc(COC[C@H]2O[C@@H](Cc3nc(N)nc(NC4Cc5ccccc5C4)n3)[C@H](O)[C@@H]2O)cc1`, the Ki in assay [1] and in assay [2] was more than 100 µM throughout. Moreover, the inhibition in assay [3] was found to be 0%; in assay [5] it was 15%.

These data come from ChEMBL document CHEMBL1133152, “Design and synthesis of mimics of S-adenosyl-L-homocysteine as potential inhibitors of erythromycin methyltransferases” (Bioorg Med Chem Lett, 2000).
